Literature values, collected in patent publication EP4656183A1, “TIRZEPATIDE COMPOSITIONS AND PREPARATION METHOD” (Galenicum Health SLU, priority 2024, dated 2025).

Conditions: buffer; several values = successive pKa values

For `O=S(=O)(O)CCN1CCN(CCO)CC1` [HEPES], the pKa is listed as ~ 7.5.
